Reference: PMC5909127, “Optimization of a “bump-and-hole” approach to allele-selective BET bromodomain inhibition” (Chemical Science, 2018)

Columns and labels:
[1] = target: VPAC1 (VIP1) (h) (Homo sapiens, UniProt P32241); assay: CEREP ExpresSProfile; conditions: read-out: Mean % of control specific binding (±SD)
From the text: (§5) Receptor Reference Compound Mean % of control specific
Receptor & Ion-Channel Screening
CEREP ExpresSProfile panel

[2] = target: CCK1 (CCKA) (h) (Homo sapiens, UniProt P32238); assay: CEREP ExpresSProfile; conditions: read-out: Mean % of control specific binding (±SD)
From the text: as §5
Receptor & Ion-Channel Screening
CEREP ExpresSProfile panel

[3] = target: kappa (KOP) (Rattus norvegicus, UniProt P34975); assay: CEREP ExpresSProfile; conditions: read-out: Mean % of control specific binding (±SD)
From the text: as §5
Receptor & Ion-Channel Screening
CEREP ExpresSProfile panel

[4] = target: NOP (ORL1) (h) (Homo sapiens, UniProt P41146); assay: CEREP ExpresSProfile; conditions: read-out: Mean % of control specific binding (±SD)
[5] = test system: BZD (central); assay: CEREP ExpresSProfile; type: binding; conditions: 1 µM
[6] = target: beta 2 (h) (Homo sapiens, UniProt P07550); assay: CEREP ExpresSProfile; conditions: read-out: Mean % of control specific binding (±SD)
[7] = target: MC4 (h) (Homo sapiens, UniProt P32245); assay: CEREP ExpresSProfile; conditions: read-out: Mean % of control specific binding (±SD)
From the text: as §5
Receptor & Ion-Channel Screening
CEREP ExpresSProfile panel

[8] = target: M3 (h) (Homo sapiens, UniProt P20309); assay: CEREP ExpresSProfile; conditions: read-out: Mean % of control specific binding (±SD)
[9] = test system: GFP-BRD4 L/V constructs with NF-κB-RE/luc2P reporter in HEK293T cells; assay: NF-κB luciferase assay; type: cell-based, human; conditions: 1 µM, inhibiting either individual BD of BRD4
Protocol: To provide additional functional insights into the individual roles of BD1 vs. BD2 beyond chromatin binding, a luciferase assay was developed to monitor the expression of NF-κB target genes, inspired by work of Zou et al.[45] […] This luciferase induction was maintained with L/V mutations (but not L/A), consistent again with more WT-like functionality of L/V compared to L/A (Fig. 9A).
12 – NF-κB Luciferase Assay
Luciferase experiments were performed in human HEK293T cells seeded in a 24-well plate at 100 000 cells in […]
pBABE NF-κB-RE/luc2P reporter plasmid. Cells were transfected using Lipofectamine™ LTX (Invitrogen) with PLUS™ reagent, with each well receiving 0.5 µg of each plasmid, 2.5 µl LTX and 0.5 µl PLUS reagent. The next day cells were treated with compounds, giving a final concentration of 1 µM compound and 0.01% DMSO. 6 hours later cells were washed with PBS, lysed with passive lysis buffer (Promega) and stored at -20°C.
Luciferase activity was measured suing the Promega luciferase assay. In a black 384-well plate 3µl of clarified lysate was mixed with 15µl luciferase assay reagent and after 15 minutes luminescence was measured in a Pherastar FS. […]
NMR spectra were recorded on a Bruker 500 Ultrashield or a Bruker Ascend 400. […] High Resolution Mass Spectra (HRMS) were recorded on a Bruker micrOTOF. […]

[10] = target: M1 (h) (Homo sapiens, UniProt P11229); assay: CEREP ExpresSProfile; conditions: read-out: Mean % of control specific binding (±SD)
[11] = target: 5-HT transporter (h) (Homo sapiens, UniProt P31645); assay: CEREP ExpresSProfile; conditions: read-out: Mean % of control specific binding (±SD)
[12] = test system: alpha 2 (non-selective); assay: CEREP ExpresSProfile; type: binding; conditions: 1 µM
[13] = test system: 55 receptors, transporters and ion channels; assay: receptor, transporter and ion channel screen; type: binding; conditions: 1 μM, whole panel with the exception of MT1
[14] = target: LKB1 (Homo sapiens, UniProt Q15831); assay: kinase Express Screen; type: biochemical
Protocol: (§1) Kinase Remaining activity
(§2) Table S9. 9-ME-1 Kinase Screen
(§3) Activity of panel of human kinases following treatment with 1 µM (2R, 3S)-7. Dundee MRC-PPU Express Screen
(§4) (http://www.kinase-screen.mrc.ac.uk/services/express-screen)

[15] = target: PKA (Homo sapiens, UniProt P17612); assay: kinase Express Screen; type: biochemical
Protocol: as §1, §2, §3, §4

[16] = target: MKK1 (Homo sapiens, UniProt Q02750); assay: kinase Express Screen; type: biochemical
Protocol: as §1, §2, §3, §4

[17] = target: p38a MAPK (Homo sapiens, UniProt Q16539); assay: kinase Express Screen; type: biochemical
Protocol: as §1, §2, §3, §4

[18] = target: EPH-A2 (Homo sapiens, UniProt P29317); assay: kinase Express Screen; type: biochemical
Protocol: as §1, §2, §3, §4

[19] = target: GFP-labelled L/V BRD4 in U2OS cells (Homo sapiens, UniProt O60885, L387V/L94V); assay: FRAP; conditions: 200 nM, 2 μM SAHA
[20] = test system: SKCa channel; assay: CEREP ExpresSProfile; type: binding; conditions: 1 µM
[21] = Plasma Half-life; conditions: BALB/c, mouse, pH 7.4
[22] = in vitro; conditions: PAMPA, pH 7.4
[23] = Intrinsic Clearance; conditions: mouse liver microsomes

Sequence of M3 (h) (P20309 whole entry): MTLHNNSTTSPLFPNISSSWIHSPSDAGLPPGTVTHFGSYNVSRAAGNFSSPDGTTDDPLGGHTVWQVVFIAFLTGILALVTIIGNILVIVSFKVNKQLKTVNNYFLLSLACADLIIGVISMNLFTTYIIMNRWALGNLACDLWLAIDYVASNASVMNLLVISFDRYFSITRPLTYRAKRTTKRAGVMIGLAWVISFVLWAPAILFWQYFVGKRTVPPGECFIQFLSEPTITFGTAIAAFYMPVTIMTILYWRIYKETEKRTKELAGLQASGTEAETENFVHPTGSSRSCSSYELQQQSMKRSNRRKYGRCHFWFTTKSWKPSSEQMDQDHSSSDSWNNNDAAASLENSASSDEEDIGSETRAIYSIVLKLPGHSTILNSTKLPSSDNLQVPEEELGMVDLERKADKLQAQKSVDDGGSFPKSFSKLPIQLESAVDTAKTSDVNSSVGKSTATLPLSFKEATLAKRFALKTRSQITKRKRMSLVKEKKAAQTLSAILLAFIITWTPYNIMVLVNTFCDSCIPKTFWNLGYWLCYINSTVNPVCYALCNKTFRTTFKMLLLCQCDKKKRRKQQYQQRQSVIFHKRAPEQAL
Sequence of CCK1 (CCKA) (h) (P32238 whole entry): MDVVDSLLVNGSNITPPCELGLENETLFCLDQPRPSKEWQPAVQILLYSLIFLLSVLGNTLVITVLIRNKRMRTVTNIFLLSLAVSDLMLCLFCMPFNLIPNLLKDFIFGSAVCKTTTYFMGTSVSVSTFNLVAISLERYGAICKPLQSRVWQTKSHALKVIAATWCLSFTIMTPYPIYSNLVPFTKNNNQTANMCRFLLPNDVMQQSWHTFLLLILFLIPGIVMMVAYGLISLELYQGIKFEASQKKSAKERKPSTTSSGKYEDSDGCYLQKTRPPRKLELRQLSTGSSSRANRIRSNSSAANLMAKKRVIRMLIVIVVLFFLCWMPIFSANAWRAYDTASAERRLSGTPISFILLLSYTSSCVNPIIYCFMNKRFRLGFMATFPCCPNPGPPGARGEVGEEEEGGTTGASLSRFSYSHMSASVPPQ
Sequence of kappa (KOP) (P34975 whole entry): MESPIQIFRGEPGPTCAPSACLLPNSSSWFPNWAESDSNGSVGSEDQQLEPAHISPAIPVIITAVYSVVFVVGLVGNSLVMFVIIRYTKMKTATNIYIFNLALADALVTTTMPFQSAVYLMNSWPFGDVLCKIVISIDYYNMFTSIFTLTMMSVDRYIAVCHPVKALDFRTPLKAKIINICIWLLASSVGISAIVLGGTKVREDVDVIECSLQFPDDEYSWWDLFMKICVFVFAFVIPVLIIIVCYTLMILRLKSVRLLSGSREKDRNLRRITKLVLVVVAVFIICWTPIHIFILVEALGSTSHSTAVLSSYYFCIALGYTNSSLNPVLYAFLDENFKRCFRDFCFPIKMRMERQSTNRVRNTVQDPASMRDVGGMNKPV
Sequence of 5-HT transporter (h) (P31645 whole entry): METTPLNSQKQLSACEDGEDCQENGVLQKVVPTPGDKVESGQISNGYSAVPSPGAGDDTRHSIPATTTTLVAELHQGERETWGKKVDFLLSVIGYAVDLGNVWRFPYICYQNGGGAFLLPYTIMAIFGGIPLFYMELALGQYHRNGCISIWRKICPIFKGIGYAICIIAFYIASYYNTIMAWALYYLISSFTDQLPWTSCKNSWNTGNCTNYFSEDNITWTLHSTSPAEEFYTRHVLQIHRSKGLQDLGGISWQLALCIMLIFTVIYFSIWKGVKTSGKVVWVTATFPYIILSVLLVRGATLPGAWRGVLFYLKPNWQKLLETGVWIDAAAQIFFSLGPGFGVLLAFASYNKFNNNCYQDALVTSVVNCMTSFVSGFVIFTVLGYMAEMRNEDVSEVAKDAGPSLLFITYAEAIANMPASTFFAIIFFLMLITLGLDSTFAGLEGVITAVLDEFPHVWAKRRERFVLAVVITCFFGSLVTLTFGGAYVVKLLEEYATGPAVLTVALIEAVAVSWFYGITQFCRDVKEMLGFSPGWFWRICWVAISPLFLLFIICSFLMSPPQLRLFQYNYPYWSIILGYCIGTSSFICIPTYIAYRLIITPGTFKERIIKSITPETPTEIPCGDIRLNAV
Sequence of M1 (h) (P11229 whole entry): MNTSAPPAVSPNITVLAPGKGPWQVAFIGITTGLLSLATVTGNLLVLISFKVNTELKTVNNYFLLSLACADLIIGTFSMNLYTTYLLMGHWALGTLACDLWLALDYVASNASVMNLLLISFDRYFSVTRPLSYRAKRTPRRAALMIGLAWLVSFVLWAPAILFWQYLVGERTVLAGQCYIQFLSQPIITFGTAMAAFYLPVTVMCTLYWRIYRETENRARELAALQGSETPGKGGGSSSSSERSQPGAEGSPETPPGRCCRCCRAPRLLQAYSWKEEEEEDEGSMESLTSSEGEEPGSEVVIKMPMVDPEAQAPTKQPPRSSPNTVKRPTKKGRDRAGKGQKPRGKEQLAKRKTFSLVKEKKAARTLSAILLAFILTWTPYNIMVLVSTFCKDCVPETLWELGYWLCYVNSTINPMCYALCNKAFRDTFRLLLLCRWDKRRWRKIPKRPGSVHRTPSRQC
Sequence of p38a MAPK (Q16539 whole entry): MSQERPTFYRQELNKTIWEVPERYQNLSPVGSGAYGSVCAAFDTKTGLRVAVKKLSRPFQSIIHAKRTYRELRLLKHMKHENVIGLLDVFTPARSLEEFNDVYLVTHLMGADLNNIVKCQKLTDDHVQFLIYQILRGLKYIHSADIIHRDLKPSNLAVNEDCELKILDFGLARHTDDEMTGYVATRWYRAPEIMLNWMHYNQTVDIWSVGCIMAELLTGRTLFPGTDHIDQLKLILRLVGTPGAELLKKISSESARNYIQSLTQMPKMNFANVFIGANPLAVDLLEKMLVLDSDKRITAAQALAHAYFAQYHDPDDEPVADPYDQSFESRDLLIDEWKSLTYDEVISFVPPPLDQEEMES
Sequence of MKK1 (Q02750 whole entry): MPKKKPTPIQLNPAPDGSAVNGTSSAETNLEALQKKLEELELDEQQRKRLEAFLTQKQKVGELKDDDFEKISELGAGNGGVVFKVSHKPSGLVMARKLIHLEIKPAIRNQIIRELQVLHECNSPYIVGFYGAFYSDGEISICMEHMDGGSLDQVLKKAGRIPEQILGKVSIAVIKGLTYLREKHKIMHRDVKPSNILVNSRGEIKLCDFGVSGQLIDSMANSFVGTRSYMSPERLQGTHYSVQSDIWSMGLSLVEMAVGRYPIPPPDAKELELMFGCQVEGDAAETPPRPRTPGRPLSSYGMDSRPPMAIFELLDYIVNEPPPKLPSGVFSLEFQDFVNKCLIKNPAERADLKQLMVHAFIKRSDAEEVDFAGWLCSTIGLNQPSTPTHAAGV
Sequence of EPH-A2 (P29317 24-976): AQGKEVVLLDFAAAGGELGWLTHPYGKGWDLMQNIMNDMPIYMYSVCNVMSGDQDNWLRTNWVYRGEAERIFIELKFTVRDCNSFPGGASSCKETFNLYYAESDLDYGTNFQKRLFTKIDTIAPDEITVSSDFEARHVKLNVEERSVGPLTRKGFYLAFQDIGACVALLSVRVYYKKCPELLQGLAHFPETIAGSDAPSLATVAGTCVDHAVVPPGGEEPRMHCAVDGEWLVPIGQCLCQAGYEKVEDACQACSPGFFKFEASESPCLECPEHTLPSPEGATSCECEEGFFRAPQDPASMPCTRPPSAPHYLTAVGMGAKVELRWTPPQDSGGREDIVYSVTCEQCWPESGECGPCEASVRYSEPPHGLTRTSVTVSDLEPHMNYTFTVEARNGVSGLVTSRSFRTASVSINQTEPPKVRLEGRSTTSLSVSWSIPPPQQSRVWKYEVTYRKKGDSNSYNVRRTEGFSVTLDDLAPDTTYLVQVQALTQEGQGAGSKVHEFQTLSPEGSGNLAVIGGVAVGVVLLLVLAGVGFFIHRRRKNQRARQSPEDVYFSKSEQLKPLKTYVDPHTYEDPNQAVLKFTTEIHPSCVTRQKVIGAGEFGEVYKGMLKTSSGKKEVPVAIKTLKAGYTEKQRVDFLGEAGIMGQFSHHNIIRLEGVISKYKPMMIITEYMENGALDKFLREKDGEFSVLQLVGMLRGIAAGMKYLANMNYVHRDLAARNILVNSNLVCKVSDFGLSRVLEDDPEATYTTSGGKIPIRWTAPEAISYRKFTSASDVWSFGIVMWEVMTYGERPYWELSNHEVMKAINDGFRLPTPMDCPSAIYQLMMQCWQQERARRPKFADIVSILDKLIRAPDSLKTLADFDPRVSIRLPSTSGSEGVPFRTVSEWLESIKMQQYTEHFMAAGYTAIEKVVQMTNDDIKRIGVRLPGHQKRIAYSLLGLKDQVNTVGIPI
Sequence of beta 2 (h) (P07550 whole entry): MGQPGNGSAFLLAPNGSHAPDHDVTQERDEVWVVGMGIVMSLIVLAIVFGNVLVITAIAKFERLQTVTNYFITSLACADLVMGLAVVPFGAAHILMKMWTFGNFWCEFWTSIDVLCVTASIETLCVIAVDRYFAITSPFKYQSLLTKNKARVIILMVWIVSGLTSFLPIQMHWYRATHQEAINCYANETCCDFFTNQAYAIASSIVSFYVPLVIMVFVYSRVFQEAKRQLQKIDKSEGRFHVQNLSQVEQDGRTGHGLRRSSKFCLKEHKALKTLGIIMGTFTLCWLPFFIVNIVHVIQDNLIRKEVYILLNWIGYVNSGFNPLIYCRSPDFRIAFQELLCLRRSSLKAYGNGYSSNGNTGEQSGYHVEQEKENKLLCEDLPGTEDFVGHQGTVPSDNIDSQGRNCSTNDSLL
Sequence of NOP (ORL1) (h) (P41146 whole entry): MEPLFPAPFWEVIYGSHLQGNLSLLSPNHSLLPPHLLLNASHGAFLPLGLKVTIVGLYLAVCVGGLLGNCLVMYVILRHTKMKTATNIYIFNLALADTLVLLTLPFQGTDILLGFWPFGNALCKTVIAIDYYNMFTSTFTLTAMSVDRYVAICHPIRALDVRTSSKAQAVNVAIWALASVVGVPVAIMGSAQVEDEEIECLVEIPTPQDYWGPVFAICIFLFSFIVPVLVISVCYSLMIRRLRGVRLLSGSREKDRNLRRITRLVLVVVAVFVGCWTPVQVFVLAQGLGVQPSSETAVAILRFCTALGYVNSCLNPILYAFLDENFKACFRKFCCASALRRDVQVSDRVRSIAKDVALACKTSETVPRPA

COC(=O)[C@H](C)[C@@H]1N=C(c2ccc(Cl)cc2)c2ccc(OC)cc2-n2c(C)nnc21 [(2R,3S)-7]
remaining activity at 1 µM [1]: 98% | remaining activity at 1 µM [2]: 90% | remaining activity at 1 µM [3]: 96% | remaining activity at 1 µM [4]: 94% | Mean % of control specific binding (±SD) [5]: 105 (10) % | remaining activity at 1 µM [6]: 105% | remaining activity at 1 µM [7]: 89% | remaining activity at 1 µM [8]: 101% | effect on NF-κB signalling [9]: strongly impacted on NF-κB signalling | remaining activity at 1 µM [10]: 104% | remaining activity at 1 µM [11]: 96% | Mean % of control specific binding (±SD) [12]: 98 (0) % | inhibition [13]: no more than 20% | remaining activity at 1 µM [14]: 91% | remaining activity at 1 µM [15]: 92% | remaining activity at 1 µM [16]: 89% | remaining activity at 1 µM [17]: 101% | remaining activity at 1 µM [18]: 86% | displacement of L/V BRD4 (FRAP) [19]: almost complete displacement | Mean % of control specific binding (±SD) [20]: 103 (10) %

CC[C@@H](C(=O)OC)[C@@H]1N=C(c2ccc(Cl)cc2)c2ccc(OC)cc2-n2c(C)nnc21 (racemic) [Compound 8]
half-life at 50 µM [21]: > 3 h | Papp [22]: 15.5 ×10⁻⁶ cm/s | CL int [23]: 4.1 ml min^–1 g^–1
